Experiments:
Test in all cases: Post-emergence efficacy, Method A
Type in all cases: in vivo
[1] = system: Chenopodium album (CHEAL); conditions: Application rate 500 g/Ha, evaluated after 13 days; for Control of weed species after post-emergence application, CHEAL: 100=total damage to plant, 0=no damage; for Control of weed species CHEAL after post-emergence application (100=total damage to plant; 0=no damage to plant): Method A
Outline: (§1)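 Scoring: 0 (no damage) to 100 (total damage), 13 days post-spray. Treatment applied post-emergence to plants grown 14 days in a controlled glasshouse at 24/16 °C and 65% humidity.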

[2] = system: Ipomoea hederacea (IPOHE); conditions: Application rate 500 g/Ha, evaluated after 13 days; for Control of weed species after post-emergence application, IPOHE: 100=total damage to plant, 0=no damage; for Control of weed species IPOHE after post-emergence application (100=total damage to plant; 0=no damage to plant): Method A
Outline: as §1

[3] = system: Echinochloa crus-galli (ECHCG); conditions: Application rate 500 g/Ha, evaluated after 13 days; for Control of weed species after post-emergence application, ECHCG: 100=total damage to plant, 0=no damage; for Control of weed species ECHCG after post-emergence application (100=total damage to plant; 0=no damage to plant): Method A
Outline: as §1

[4] = system: Amaranthus palmeri (AMAPA); conditions: Application rate 500 g/Ha, evaluated after 13 days; for Control of weed species after post-emergence application, AMAPA: 100=total damage to plant, 0=no damage; for Control of weed species AMAPA after post-emergence application (100=total damage to plant; 0=no damage to plant): Method A
Outline: as §1

[5] = system: Lolium perenne (LOLPE); conditions: Application rate 500 g/Ha, evaluated after 13 days; for Control of weed species after post-emergence application, LOLPE: 100=total damage to plant, 0=no damage; for Control of weed species LOLPE after post-emergence application (100=total damage to plant; 0=no damage to plant): Method A
Outline: as §1

[6] = system: Setaria faberi (SETFA); conditions: Application rate 500 g/Ha, evaluated after 13 days; for Control of weed species after post-emergence application, SETFA: 100=total damage to plant, 0=no damage; for Control of weed species SETFA after post-emergence application (100=total damage to plant; 0=no damage to plant): Method A
Outline: as §1

[7] = system: Eleusine indica (ELEIN); conditions: Application rate 500 g/Ha, evaluated after 13 days; for Control of weed species after post-emergence application, ELEIN: 100=total damage to plant, 0=no damage; for Control of weed species ELEIN after post-emergence application (100=total damage to plant; 0=no damage to plant): Method A
Outline: as §1

[8] = system: Digitaria sanguinalis (DIGSA); conditions: Application rate 500 g/Ha, evaluated after 13 days; for Control of weed species after post-emergence application, DIGSA: 100=total damage to plant, 0=no damage; for Control of weed species DIGSA after post-emergence application (100=total damage to plant; 0=no damage to plant): Method A
Outline: as §1

[9] = system: Euphorbia heterophylla (EPHHL); conditions: Application rate 500 g/Ha, evaluated after 13 days; for Control of weed species after post-emergence application, EPHHL: 100=total damage to plant, 0=no damage; for Control of weed species EPHHL after post-emergence application (100=total damage to plant; 0=no damage to plant): Method A
Outline: as §1

Row | SMILES | Control of weed species after post-emergence application, CHEAL [1] | Control of weed species after post-emergence application, IPOHE [2] | Control of weed species after post-emergence application, ECHCG [3] | Control of weed species after post-emergence application, AMAPA [4] | Control of weed species after post-emergence application, LOLPE [5] | Control of weed species after post-emergence application, SETFA [6] | Control of weed species after post-emergence application, ELEIN [7] | Control of weed species after post-emergence application, DIGSA [8] | Control of weed species after post-emergence application, EPHHL [9] | Control of weed species CHEAL after post-emergence application (100=total damage to plant; 0=no damage to plant) [1] | Control of weed species IPOHE after post-emergence application (100=total damage to plant; 0=no damage to plant) [2] | Control of weed species ECHCG after post-emergence application (100=total damage to plant; 0=no damage to plant) [3] | Control of weed species AMAPA after post-emergence application (100=total damage to plant; 0=no damage to plant) [4] | Control of weed species LOLPE after post-emergence application (100=total damage to plant; 0=no damage to plant) [5] | Control of weed species SETFA after post-emergence application (100=total damage to plant; 0=no damage to plant) [6] | Control of weed species ELEIN after post-emergence application (100=total damage to plant; 0=no damage to plant) [7] | Control of weed species DIGSA after post-emergence application (100=total damage to plant; 0=no damage to plant) [8] | Control of weed species EPHHL after post-emergence application (100=total damage to plant; 0=no damage to plant) [9]
1 | O=S(=O)([O-])CC[n+]1ccc(-c2cccnc2)cn1 [Compound A179] | 30 | 20 | 40 | 30 | 10 | 60 | 50 | 50 | 60 | – | – | – | – | – | – | – | – | –
2 | NC(=O)c1cnc(-c2cc[n+](CCC(=O)O)nc2)cn1 [Compound A202, 3-[4-(5-carbamoylpyrazin-2-yl)pyridazin-1-ium-1-yl]propanoic acid 2,2,2-trifluoroacetate] | 90 | 60 | 80 | 100 | 70 | 70 | 20 | 60 | 100 | – | – | – | – | – | – | – | – | –
3 | CCOP(=O)(CCC[n+]1ccc(-c2ncccn2)cn1)OCC.O=C([O-])C(F)(F)F [Compound A204] | 20 | 0 | 0 | 10 | 0 | 0 | 0 | 0 | 0 | – | – | – | – | – | – | – | – | –
4 | CCOP(=O)(CC[n+]1ccc(-c2cnccn2)cn1)OCC.O=C([O-])C(F)(F)F [Compound A8] | – | – | – | – | – | – | – | – | – | 10 | 10 | 10 | 10 | 0 | 20 | 20 | 20 | 10
5 | COP(=O)(C[n+]1ccc(-c2ccncn2)cn1)OC.O=S(=O)([O-])C(F)(F)F [Compound A237] | 10 | 50 | 10 | 60 | 10 | 20 | 70 | 50 | 0 | – | – | – | – | – | – | – | – | –
6 | N[C@@H](C[n+]1ccc(-c2ncccn2)cn1)C(=O)O [Compound A208, [(1S)-1-carboxy-2-(4-pyrimidin-2-ylpyridazin-1-ium-1-yl)ethyl]ammonium 2,2,2-trifluoroacetate] | 80 | 20 | 30 | 100 | 10 | 60 | 60 | 40 | 50 | – | – | – | – | – | – | – | – | –
7 | CCOP(=O)(O)CC[n+]1ccc(-c2ncccn2)cn1.O=C([O-])C(F)(F)F [Compound A113, ethoxy-[2-(4-pyrimidin-2-ylpyridazin-1-ium-1-yl)ethyl]phosphinate] | – | – | – | – | – | – | – | – | – | 90 | 60 | 60 | 40 | 10 | 50 | 40 | 60 | 100
8 | COP(=O)(C[n+]1ccc(-c2ncccn2)cn1)OC.O=S(=O)([O-])C(F)(F)F [Compound A238, 1-(dimethoxyphosphorylmethyl)-4-pyrimidin-2-yl-pyridazin-1-ium trifluoromethanesulfonate] | 20 | 40 | 40 | 50 | 10 | 50 | 30 | 50 | 50 | – | – | – | – | – | – | – | – | –
9 | COc1cc(C)nc(-c2cc[n+](CCS(=O)(=O)[O-])nc2)n1 [Compound A94] | – | – | – | – | – | – | – | – | – | 90 | 30 | 30 | 70 | 20 | 40 | 20 | 30 | 40
10 | O=C(O)CC[n+]1ccc(-c2ncc(Cl)c(=O)[nH]2)cn1 [Compound A161, 3-[4-(5-chloro-6-oxo-1H-pyrimidin-2-yl)pyridazin-1-ium-1-yl]propanoic acid 2,2,2-trifluoroacetate] | 70 | 20 | 20 | 30 | 10 | 10 | 20 | 20 | 50 | – | – | – | – | – | – | – | – | –
11 | N[C@H](CC[n+]1ccc(-c2ccncn2)cn1)C(=O)O [Compound A235] | 40 | 20 | 30 | 10 | 0 | 30 | 10 | 40 | 20 | – | – | – | – | – | – | – | – | –

Source: patent publication US11618743B2, “Herbicidal compounds” (SYNGENTA PARTICIPATIONS AG, priority 2017, dated 2023)
